# Measurements: patent US10131652B2, “Pyrimidinyloxy benzene derivatives as herbicides” (E. I. DU PONT DE NEMOURS AND COMPANY, priority 2014, dated 2018)
# Legend:
# Type in all cases: in vivo
# rice (Oryza sativa) = test: Test C flooded paddy test plant response; settings: Flood, 250 g ai/ha; scale of 0 to 100 where 0 is no effect and 100 is complete control; 13 to 15 days
# How it was run: (§1)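 Flooded-pot format, 3 cm water over soil maintained for the test duration; test compounds dispensed into the water at the 2-leaf stage. Greenhouse holding 13 to 15 days. Plants evaluated visually relative to untreated controls, 0 meaning no effect and 100 complete control.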
# [1] = system: barnyardgrass (Echinochloa crus-galli); test: Test C flooded paddy test plant response; settings: Flood, 250 g ai/ha; scale of 0 to 100 where 0 is no effect and 100 is complete control; 13 to 15 days
# How it was run: as §1
# [2] = system: small-flower umbrella sedge (Cyperus difformis); test: Test C flooded paddy test plant response; settings: Flood, 250 g ai/ha; scale of 0 to 100 where 0 is no effect and 100 is complete control; 13 to 15 days
# How it was run: as §1
# [3] = system: ducksalad (Heteranthera limosa); test: Test C flooded paddy test plant response; settings: Flood, 250 g ai/ha; scale of 0 to 100 where 0 is no effect and 100 is complete control; 13 to 15 days
# How it was run: as §1
# [4] = system: velvetleaf (Abutilon theophrasti); test: Test B pre-/postemergence plant response
# How it was run: (§2)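 Greenhouse pots, loam/sand soil; compound formulated with surfactant in non-phytotoxic solvent. Preemergence soil spray and postemergence spray at 1–2 leaf stage run simultaneously. Visual injury, 0–100, about 10 days post-treatment.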
# [5] = system: barnyardgrass (Echinochloa crus-galli); test: Test B pre-/postemergence plant response
# How it was run: as §2
# [6] = system: pigweed (Amaranthus retroflexus); test: Test B pre-/postemergence plant response
# How it was run: as §2
# corn (Zea mays) = test: Test B pre-/postemergence plant response
# How it was run: as §2
# [7] = system: wheat (Triticum aestivum); test: Test B pre-/postemergence plant response
# How it was run: as §2
# [8] = system: giant foxtail (Setaria faberii); test: Test B pre-/postemergence plant response
# How it was run: as §2
# [9] = system: large (Lg) crabgrass (Digitaria sanguinalis); test: Test B pre-/postemergence plant response
# How it was run: as §2
# [10] = 125 g ai/ha, postemergence, 0 to 100 scale, 0 no effect, 100 complete control
# [11] = Postemergence, 500 g ai/ha, 0 to 100 scale (0 no effect, 100 complete control)
# [12] = Preemergence, 125 g ai/ha, 0 to 100 scale where 0 is no effect and 100 is complete control
# [13] = Preemergence, 500 g ai/ha, 0 to 100 scale (0 no effect, 100 complete control)
structure (smiles),measurement,setting,value
Clc1cccc(-c2ccccc2Oc2ncc(Br)cn2)n1 [Compound 17],Rice plant response rating,rice (Oryza sativa),0
same,Barnyardgrass plant response rating,[1],0
same,"Sedge, Umbrella plant response rating",[2],0
same,Ducksalad plant response rating,[3],0
same,"Plant response rating, Velvetleaf",[4]; [10],0
same,"Plant response rating, Velvetleaf",[4]; [11],20
same,"Plant response rating, Velvetleaf",[4]; [12],0
same,"Plant response rating, Velvetleaf",[4]; [13],10
same,"Plant response rating, Barnyardgrass",[5]; [10],0
same,"Plant response rating, Barnyardgrass",[5]; [11],0
same,"Plant response rating, Barnyardgrass",[5]; [12],0
same,"Plant response rating, Barnyardgrass",[5]; [13],0
same,"Plant response rating, Pigweed",[6]; [10],0
same,"Plant response rating, Pigweed",[6]; [11],10
same,"Plant response rating, Pigweed",[6]; [12],0
same,"Plant response rating, Pigweed",[6]; [13],0
same,"Plant response rating, Corn",corn (Zea mays); [10],0
same,"Plant response rating, Corn",corn (Zea mays); [11],0
same,"Plant response rating, Corn",corn (Zea mays); [12],0
same,"Plant response rating, Corn",corn (Zea mays); [13],0
same,"Plant response rating, Wheat",[7]; [10],0
same,"Plant response rating, Wheat",[7]; [11],0
same,"Plant response rating, Wheat",[7]; [12],0
same,"Plant response rating, Wheat",[7]; [13],0
same,"Plant response rating, Foxtail, Giant",[8]; [10],0
same,"Plant response rating, Foxtail, Giant",[8]; [11],0
same,"Plant response rating, Foxtail, Giant",[8]; [12],0
same,"Plant response rating, Foxtail, Giant",[8]; [13],0
same,"Plant response rating, Crabgrass, Large",[9]; [10],0
same,"Plant response rating, Crabgrass, Large",[9]; [11],0
same,"Plant response rating, Crabgrass, Large",[9]; [12],0
same,"Plant response rating, Crabgrass, Large",[9]; [13],10
